From patent US20210238139A1, “MODULATORS OF TRYPTOPHAN CATABOLISM” (E-Therapeutics PLC, priority 2018, published 2021)

Test system: SK-OV-3 cells
Test: Effect of compounds on tryptophan catabolism in SK-OV-3 cell line (inhibition of kynurenine production, LC-MS/MS)
Assay type: cell-based
Conditions: Homo sapiens, SK-OV-3, 24 h, SK-OV-3 cell line, 24 h incubation, kynurenine in supernatant by LC-MS/MS; read-out: IC50 Ranges (ic50 values for inhibition of Kynurenine production)
Procedure, shortened: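 Kynurenine in supernatants quantified by LC-MS/MS after 24 h compound exposure (37 °C; top 30 μM, eight 3-fold steps, duplicate) in DMEM F-12 containing 6 mg/mL L-tryptophan. Cells pre-plated overnight in McCoy's 5A with 10% FBS. Viability checked in parallel by ATP luminescence.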

IC50, > 5 µM:
N#Cc1ccc(NC(=O)N(Cc2cc3ncccc3o2)C2CCC2)cc1 [Compound 249, 3-(4-cyanophenyl)-1-cyclobutyl-1-(furo[3,2-b]pyridin-2-ylmethyl)urea]
O=C(Nc1ccc(Cl)cc1)N(Cc1cc2ncccc2o1)C1CCC1 [Compound 252, 3-(4-chlorophenyl)-1-cyclobutyl-1-(furo[3,2-b]pyridin-2-ylmethyl)urea]

IC50, 0.5 to 1 µM:
Cc1ccc(CN(C(=O)Nc2ccc(C#N)cc2)c2ccn(C)n2)o1 [Compound 221, 3-(4-cyanophenyl)-1-[(5-methyl-2-furyl)methyl]-1-(1-methylpyrazol-3-yl)urea]
C#Cc1ccc(NC(=O)N(Cc2ccc(C)o2)C2COC2)cc1 [Compound 236, 3-(4-ethynylphenyl)-1-[(5-methyl-2-furyl)methyl]-1-(oxetan-3-yl)urea]
Cc1ccc(CN(C(=O)Nc2ccc(C#N)cc2)C2CC(F)(F)C2)o1 [Compound 241, 3-(4-cyanophenyl)-1-(3,3-difluorocyclobutyl)-1-[(5-methyl-2-furyl)methyl]urea]
Cc1ccc(NC(=O)N(Cc2ccc(C)o2)C2CCCC2)cn1 [Compound 246, 1-cyclopentyl-1-[(5-methyl-2-furyl)methyl]-3-(6-methyl-3-pyridyl)urea]
COC1CC(N(Cc2ccc(C)o2)C(=O)Nc2ccc(Cl)cc2)C1 (stereo not drawn) [Compound 251, 3-(4-chlorophenyl)-1-(3-methoxycyclobutyl)-1-[(5-methyl-2-furyl)methyl]urea]

IC50, 1 to 5 µM:
Cc1ccc(CN(C(=O)Nc2ccc(C#N)cc2)c2cncn2C)o1 [Compound 231, 3-(4-cyanophenyl)-1-[(5-methyl-2-furyl)methyl]-1-(3-methylimidazol-4-yl)urea]
Cc1ccc(CN(C(=O)Nc2ccc(C#N)cc2)c2nccn2C)o1 [Compound 233, 3-(4-cyanophenyl)-1-[(5-methyl-2-furyl)methyl]-1-(1-methylimidazol-2-yl)urea]
O=C(Nc1ccc(Cl)cc1)N(Cc1cn2ccccc2n1)C1CCC1 [Compound 250, 3-(4-chlorophenyl)-1-cyclobutyl-1-(imidazo[1,2-a]pyridin-2-ylmethyl)urea]

IC50, 0.1 to 0.5 µM:
Cc1ccc(CN(C(=O)Nc2ccc(C#N)cc2)C2CCCC2C#N)o1 (stereo not drawn) [Compound 219, 1-(2-cyanocyclopentyl)-3-(4-cyanophenyl)-1-[(5-methyl-2-furyl)methyl]urea]
Cc1ccc(CN(C(=O)Nc2ccc(Cl)cc2)C2CC(F)C2)o1 (stereo not drawn) [Compound 222, 3-(4-chlorophenyl)-1-(3-fluorocyclobutyl)-1-[(5-methyl-2-furyl)methyl]urea]
N#Cc1ccc(NC(=O)N(Cc2ccc3ocnc3c2)C2CCC2)cc1 [Compound 223, 1-(1,3-benzoxazol-5-ylmethyl)-3-(4-cyanophenyl)-1-cyclobutyl-urea]
Cc1ccc(CN(C(=O)Nc2ccc(C#N)cc2)C2CCC(C#N)C2)o1 (stereo not drawn) [Compound 224, 1-(3-cyanocyclopentyl)-3-(4-cyanophenyl)-1-[(5-methyl-2-furyl)methyl]urea]
Cc1ccc(CN(C(=O)Nc2ccc(Cl)cc2)c2cnn(C)c2)o1 [Compound 225, 3-(4-chlorophenyl)-1-[(5-methyl-2-furyl)methyl]-1-(1-methylpyrazol-4-yl)urea]
Cc1ccc(CN(C(=O)Nc2ccc(Cl)cc2)c2ccn(C)n2)o1 [Compound 226, 3-(4-chlorophenyl)-1-[(5-methyl-2-furyl)methyl]-1-(1-methylpyrazol-3-yl)urea]
Cc1ccc(CN(C(=O)Nc2ccc(C(F)(F)F)nc2)C2CCCC2)o1 [Compound 228, 1-cyclopentyl-1-[(5-methyl-2-furyl)methyl]-3-[6-(trifluoromethyl)-3-pyridyl]urea]
N#Cc1ccc(NC(=O)N(Cc2nc3ccccc3s2)C2CCC2)cc1 [Compound 229, 1-(1,3-benzothiazol-2-ylmethyl)-3-(4-cyanophenyl)-1-cyclobutyl-urea]
Cc1ccc(CN(C(=O)Nc2ccc(C#N)cc2)c2c(C)noc2C)o1 [Compound 230, 3-(4-cyanophenyl)-1-(3,5-dimethylisoxazol-4-yl)-1-[(5-methyl-2-furyl)methyl]urea]
O=C(Nc1ccc(Cl)cc1)N(Cc1ccc2ncoc2c1)C1CCC1 [Compound 237, 1-(1,3-benzoxazol-6-ylmethyl)-3-(4-chlorophenyl)-1-cyclobutyl-urea]
Cc1ccc(CN(C(=O)Nc2ccc(Cl)cc2)c2c(C)noc2C)o1 [Compound 238, 3-(4-chlorophenyl)-1-(3,5-dimethylisoxazol-4-yl)-1-[(5-methyl-2-furyl)methyl]urea]
O=C(Nc1ccc(Cl)cc1)N(Cc1cc2ccccn2n1)C1CCC1 [Compound 239, 3-(4-chlorophenyl)-1-cyclobutyl-1-(pyrazolo[1,5-a]pyridin-2-ylmethyl)urea]
O=C(Nc1ccc(Cl)cc1)N(Cc1ccc2ncsc2c1)C1CCC1 [Compound 243, 1-(1,3-benzothiazol-6-ylmethyl)-3-(4-chlorophenyl)-1-cyclobutyl-urea]
Cc1ccc(CN(C(=O)Nc2ccc(C#N)cc2)C2CCC(F)(F)C2)o1 (stereo not drawn) [Compound 244, 3-(4-cyanophenyl)-1-(3,3-difluorocyclopentyl)-1-[(5-methyl-2-furyl)methyl]urea]
Cc1ccc(CN(C(=O)Nc2ccc(Cl)cc2)C2CCC(F)(F)C2)o1 (stereo not drawn) [Compound 245, 3-(4-chlorophenyl)-1-(3,3-difluorocyclopentyl)-1-[(5-methyl-2-furyl)methyl]urea]
Cc1ccc(CN(C(=O)Nc2ccc(Cl)cc2)C2CC(F)(F)C2)o1 [Compound 247, 3-(4-chlorophenyl)-1-(3,3-difluorocyclobutyl)-1-[(5-methyl-2-furyl)methyl]urea]
O=C(Nc1ccc(Cl)cc1)N(Cc1nc2ccccc2s1)C1CCC1 [Compound 248, 1-(1,3-benzothiazol-2-ylmethyl)-3-(4-chlorophenyl)-1-cyclobutyl-urea]

IC50, < 0.1 µM:
Cc1ccc(CN(C(=O)Nc2ccc(Cl)cc2)C2CCCC2C#N)o1 (stereo not drawn) [Compound 227, 3-(4-chlorophenyl)-1-(2-cyanocyclopentyl)-1-[(5-methyl-2-furyl)methyl]urea]
O=C(Nc1ccc(Cl)cc1)N(Cc1ccc2ocnc2c1)C1CCC1 [Compound 232, 1-(1,3-benzoxazol-5-ylmethyl)-3-(4-chlorophenyl)-1-cyclobutyl-urea]
N#Cc1ccc(NC(=O)N(Cc2cc3ccccc3o2)C2CCC2)cc1 [Compound 234, 1-(benzofuran-2-ylmethyl)-3-(4-cyanophenyl)-1-cyclobutyl-urea]
Cn1ncc2ccc(CN(C(=O)Nc3ccc(Cl)cc3)C3CCC3)cc21 [Compound 235, 3-(4-chlorophenyl)-1-cyclobutyl-1-[(1-methylindazol-6-yl)methyl]urea]
O=C(Nc1ccc(Cl)cc1)N(Cc1ccc2nsnc2c1)C1CCC1 [Compound 240, 1-(2,1,3-benzothiadiazol-5-ylmethyl)-3-(4-chlorophenyl)-1-cyclobutyl-urea]

Same assay, conditions: SK-OV-3 cell line, 24 h incubation, kynurenine in supernatant by LC-MS/MS; read-out: IC50 Ranges (ic50 values for inhibition of Kynurenine production)

IC50, 0.1 to 0.5 µM:
Cc1ccc(CN(C(=O)Nc2ccc(Cl)cc2)c2cncn2C)o1 [Compound 242, 3-(4-chlorophenyl)-1-[(5-methyl-2-furyl)methyl]-1-(3-methylimidazol-4-yl) urea]
